From the NIST ThermoML archive (doi:10.1016/j.jct.2015.12.025)
Where “and” joins values, the source holds several entries; their conditions need not be identical. Equal entries are not always repeated. ± gives the expanded uncertainty stated by the source.

Legend:
[1] = 102 kPa, Liquid, Vibrating tube method
[2] = refractive index (Na D-line) (dimensionless); details: 102 kPa, Liquid, Standard Abbe refractometry
[3] = xn = mol fraction of the nth substance listed; details: 102 kPa, Liquid, Vibrating tube method
[4] = refractive index (Na D-line) (dimensionless); xn = mol fraction of the nth substance listed; details: 102 kPa, Liquid, Standard Abbe refractometry

C[Si]1(CCC(F)(F)F)O[Si](C)(CCC(F)(F)F)O[Si](C)(CCC(F)(F)F)O1 (stereo not drawn)
Details | mass density, 308.15 K [kg/m3] | mass density, 313.15 K [kg/m3] | mass density, 318.15 K [kg/m3] | mass density, 323.15 K [kg/m3] | refractive index, 308.15 K | refractive index, 313.15 K | refractive index, 318.15 K | refractive index, 323.15 K
[1] | 1236.63 ± 1 | 1230.05 ± 1 | 1223.55 ± 1 | 1216.99 ± 1 | – | – | – | –
[2] | – | – | – | – | 1.36011 ± 0.00035 | 1.35808 ± 0.00035 | 1.35609 ± 0.00035 and 1.35608 ± 0.00035 | 1.35407 ± 0.00035

C[Si]1(CCC(F)(F)F)O[Si](C)(CCC(F)(F)F)O[Si](C)(CCC(F)(F)F)O1 (stereo not drawn) + CC(C)(C)c1ccccc1
x1 = 1
Details | mass density, 308.15 K [kg/m3] | mass density, 313.15 K [kg/m3] | mass density, 318.15 K [kg/m3] | mass density, 323.15 K [kg/m3] | refractive index, 308.15 K | refractive index, 313.15 K | refractive index, 318.15 K | refractive index, 323.15 K
[3] | 1236.63 ± 1 | 1230.05 ± 1 | 1223.55 ± 1 | 1216.99 ± 1 | – | – | – | –
[4] | – | – | – | – | 1.36011 ± 0.00035 | 1.35808 ± 0.00035 | 1.35609 ± 0.00035 | 1.35407 ± 0.00035

CC(C)(C)c1ccccc1 [(1,1-dimethylethyl)benzene]
Details | mass density, 298.15 K [kg/m3] | mass density, 308.15 K [kg/m3] | mass density, 313.15 K [kg/m3] | mass density, 318.15 K [kg/m3] | mass density, 323.15 K [kg/m3] | refractive index, 298.15 K | refractive index, 308.15 K | refractive index, 313.15 K | refractive index, 318.15 K | refractive index, 323.15 K
[1] | 862.28 ± 1 | 854.12 ± 1 | 849.98 ± 1 | 845.87 ± 1 | 841.72 ± 1 | – | – | – | – | –
[2] | – | – | – | – | – | 1.49009 ± 0.00035 | 1.48509 ± 0.00035 | 1.48256 ± 0.00035 | 1.48007 ± 0.00035 | 1.47754 ± 0.00035

COc1ccccc1 [anisole]
Details | mass density, 298.15 K [kg/m3] | mass density, 308.15 K [kg/m3] | mass density, 313.15 K [kg/m3] | mass density, 318.15 K [kg/m3] | mass density, 323.15 K [kg/m3] | refractive index, 298.15 K | refractive index, 308.15 K | refractive index, 313.15 K | refractive index, 318.15 K | refractive index, 323.15 K
[1] | 989.32 ± 1 | 980.04 ± 1 | 975.25 ± 1 | 970.52 ± 1 | 965.73 ± 1 | – | – | – | – | –
[2] | – | – | – | – | – | 1.5146 ± 0.00035 | 1.50865 ± 0.00035 | 1.50604 ± 0.00035 | 1.50341 ± 0.00035 | 1.50073 ± 0.00035

COc1ccccc1 [anisole] + C[Si]1(CCC(F)(F)F)O[Si](C)(CCC(F)(F)F)O[Si](C)(CCC(F)(F)F)O1
x2 = 0
Details | mass density, 308.15 K [kg/m3] | mass density, 313.15 K [kg/m3] | mass density, 318.15 K [kg/m3] | mass density, 323.15 K [kg/m3] | refractive index, 308.15 K | refractive index, 313.15 K | refractive index, 318.15 K | refractive index, 323.15 K
[3] | 980.04 ± 1 | 975.25 ± 1 | 970.52 ± 1 | 965.73 ± 1 | – | – | – | –
[4] | – | – | – | – | 1.50865 ± 0.00035 | 1.50604 ± 0.00035 | 1.50341 ± 0.00035 | 1.50073 ± 0.00035

CCc1ccccc1 [ethylbenzene]
Details | mass density, [1] [kg/m3] | refractive index, [2]
298.15 K | 862.58 ± 1 | 1.49301 ± 0.00035
303.15 K | – | 1.4903 ± 0.00035
308.15 K | 853.71 ± 1 | 1.4876 ± 0.00035
313.15 K | 849.29 ± 1 | 1.48491 ± 0.00035
318.15 K | 844.7 ± 1 | 1.48217 ± 0.00035
323.15 K | 840.28 ± 1 | 1.47944 ± 0.00035

CCc1ccccc1 [ethylbenzene] + C[Si]1(CCC(F)(F)F)O[Si](C)(CCC(F)(F)F)O[Si](C)(CCC(F)(F)F)O1
x2 = 0
Details | mass density, 308.15 K [kg/m3] | mass density, 313.15 K [kg/m3] | mass density, 318.15 K [kg/m3] | mass density, 323.15 K [kg/m3] | refractive index, 308.15 K | refractive index, 313.15 K | refractive index, 318.15 K | refractive index, 323.15 K
[3] | 853.71 ± 1 | 849.29 ± 1 | 844.7 ± 1 | 840.28 ± 1 | – | – | – | –
[4] | – | – | – | – | 1.4876 ± 0.00035 | 1.48491 ± 0.00035 | 1.48217 ± 0.00035 | 1.47944 ± 0.00035

O=[N+]([O-])c1ccccc1 [nitrobenzene]
Details | mass density, [1] [kg/m3] | refractive index, [2]
298.15 K | 1198.2 ± 1 | 1.54992 ± 0.00035
303.15 K | 1193.25 ± 1 | 1.54746 ± 0.00035
308.15 K | 1188.17 ± 1 | 1.545 ± 0.00035
313.15 K | 1183.21 ± 1 | 1.5425 ± 0.00035
318.15 K | 1178.24 ± 1 | 1.54005 ± 0.00035
323.15 K | 1173.26 ± 1 | 1.53757 ± 0.00035

O=[N+]([O-])c1ccccc1 [nitrobenzene] + C[Si]1(CCC(F)(F)F)O[Si](C)(CCC(F)(F)F)O[Si](C)(CCC(F)(F)F)O1
x2 = 0
Details | mass density, 308.15 K [kg/m3] | mass density, 313.15 K [kg/m3] | mass density, 318.15 K [kg/m3] | mass density, 323.15 K [kg/m3] | refractive index, 308.15 K | refractive index, 313.15 K | refractive index, 318.15 K | refractive index, 323.15 K
[3] | 1188.17 ± 1 | 1183.21 ± 1 | 1178.24 ± 1 | 1173.26 ± 1 | – | – | – | –
[4] | – | – | – | – | 1.545 ± 0.00035 | 1.5425 ± 0.00035 | 1.54005 ± 0.00035 | 1.53757 ± 0.00035
